Laboratory results published in US6262095A, “Use of tricyclic derivatives of 1,4-dihydro-1,4-dioxo-1H-naphthalene, novel compounds obtained and their application in theraphy” (Laboratoire Innothera, priority 1995, dated 2001).

Assays:
septic shock in rats = assay: Septic shock induced by LPS in rats; type: in vivo; conditions: rat, 28 mg/kg i.v. bolus 5 min before induction of septic shock, compared to control group
Description: The activity in septic shock is studied in rats after the induction of the shock by an intravenous injection in the bolus of a lipopolysaccharide endotoxin (LPS: 15 mg/kg) of E. col, in a method similar to that described by Terashita et al., Eur. J. Pharmacol., 1985, Vol. 109: pp. 257-261. The arterial pressures are measured as a function of time and comparatively between treated groups and control groups (excipient alone). The compounds are administered intravenously or orally, 5 min or 2 h, respectively, before the injection of LPS.

[1] = test system: arterial pressure of the conscious rat; assay: Arterial pressure of the conscious rat; type: in vivo; conditions: oral 0.1-5-50 mg/kg
Description: In the conscious animal, the arterial pressures are measured according to the classical method derived from Riva Rocci, by the analysis of the acoustical wave transmitted at the arterial level and transformed by a ceramic piezo transducer placed on the tail of the rat, downstream from a sleeve that is automatically inflated by a pressure generator. At the microcirculatory level, the variations in the sections of the veinules and arterioles are studied in vivo in the model of the dorsal cutaneous chamber of conscious hamsters, after a video microscopic recording (microscope Leitz Ergolux equipped with a halogen source for the illumination and its black-and-white CD video camera HPR 610) and computer analysis (software Visicap, Pack ICAP) of the images.

jugular vein of rabbits = assay: Contraction of rabbit jugular vein under depolarizing hyperpotassic conditions; type: cell-based; conditions: Oryctolagus cuniculus, pH 7.4, read-out: ED50 (contraction)
Description: (§1) The contractile effects are measured in vitro under static conditions on vascular capacitance or resistance rings of saphenous, femoral, jugular, mesenteric, and caval veins . . . and on femoral, carotid, basilar, or mesenteric arteries, as well as the thoracic or abdominal aorta . . . in rats (Wistar, 200-250 g), rabbits (New Zealand, 2-2.5 kg), guinea pigs (Dunkin Hartley 250-300 g).
(§2) The rings are placed in a chamber for isolated organs (25 mL for capacitance vessels and 2.5 mL for resistance vessels according to Mulvany), and maintained under isometric conditions using two rigid threads inserted inside the vessel, avoiding causing damage to the endothelium. The vessels are bathed in a modified Krebs solution (in mM: NaCl=118; KCl=4.6; CaCl2 =2.5; MgSO4 =1.2; KH2 PO4 =1.17; NaHCO3 =25; glucose=11), continuously aerated using a gaseous mixture of 95% O2 and 5% Co2, at a pH=7.4, and regulated by thermostat at 37° C. The rings are adjusted to their optimal point as far as the tension-length relationship is concerned. […] The pharmacological studies are carried out after a few standardized preliminary contractile stimulations using a depolarizing solution (hyperpotassic type obtained by replacing NaCl with KCl in equimolar quantities), along with rinsings and periods of equilibration in a pure physiological solution. […]

[2] = test system: arterial pressure of the anesthetized rat; assay: Arterial pressure of the anesthetized rat; type: in vivo; conditions: i.v. bolus at least up to 28 mg/kg
Description: The contractile effects are also measured in vitro under dynamic flow conditions, by the pressure developed by the vascular beds that are perfused at a constant flow rate. At the mesenteric level, the selective effect on veins is studied using the model of a double simultaneous and separate infusion of the arterial and venous networks model developed by T. Warner (British J. Pharmacol., 1990, Vol. 99, pp. 427-433). The separation of the two networks is achieved by cutting the vessels and the tissues along the intestinal border. The networks are perfused at 2 mL.min^-1 with a Krebs solution (37.5° C.), which is aerated using 95% O2 and 5% CO2. In vivo, the arterial and venous pressures are measured in the anesthetized animal, under basal conditions and after circulatory arrest caused by the swelling of a balloon catheter introduced at the level of the left atrium. During the cardiac arrest, the venous tone (average circulatory filling pressure at a constant blood volume) is calculated from the venous and arterial pressures measured at equilibrium and corrected as a function of the relative differences in compliance between these two networks (Samar & Coleman, Am. J. Physiol., 1978, Vol. 234: pp. H94-100; Yamamoto et al., Am. J. Physiol., 1980, Vol. 238: pp. H823-828).

[3] = test system: saphenous vein in rabbits; assay: Potentiation of the contractile response of the rabbit saphenous vein to serotonin; type: cell-based
Description: as §1, §2

[4] = test system: hyperpermeability induced by zymosan in rats; assay: Inflammatory hyperpermeability induced by zymosan in rats; type: in vivo, rat (Wistar); conditions: rat, oral, 5 mg/kg
Description: The vascular permeability is studied in vivo by measuring the extravasation of albumin, the quantity of which is determined using an albumin-binding dye (Evans blue).
The hyperpermeability is induced by the intradermal injection of a solution of histamine, bradykinin, or zymosan.
The abdominal walls of the rats (Wistar, 200-230 g) are shorn 1 h before the start of the experiment. The product to be tested is injected by the intraperitoneal route or orally 1-4 h before the sacrifice. The rats are anesthetized with a halothane mixture. They then receive an intradermal injection in their abdomen of 0.10 or 0.15 mL (or for histamine 6.7 or […]) of inflammatory agent and an intravenous injection of 1 mL of 0.5% Evans blue solution in the vein of the penis. These injections are carried out 30 min before the sacrificing.
30 min after these two injections, the rats are sacrificed by cervical dislocation.
At the site of the injection of the inflammatory agent, the skin is cut and placed into glass tubes with a ground[-glass] neck containing 3 mL of fuming hydrochloric acid. […] After allowing the preparation to stand for 30 min, 7 mL of dichloromethane are added. The tubes are periodically agitated for 1 h. The aqueous phase is eliminated by aspiration, and the organic "dichloromethane" phase is filtered. The optical densities are quantified by absorption spectrophotometry at a wavelength of 620 nm, against a blank [control] containing only dichloromethane. The averages of the optical densities of the different lots of treated or control animals are calculated, then a percentage of variation of the values corresponding to the treated [experimental] animals compared to those of the control animals is calculated.

Compound: O=C1c2ccccc2C(=O)c2sc(-c3ccco3)nc21 [Example n, 4,9-Dihydro-4,9-dioxo-2-(2-furyl)-naphtho[2,3-d]thiazole]
- increase of average arterial pressure (septic shock in rats): 20 mm of mercury
- arterial pressure [1]: does not affect the arterial pressure
- EC50 (jugular vein of rabbits): 16 nM
- arterial pressure [2]: does not affect the arterial pressure
- contractile response due to serotonin [3]: selectively potentiates
- Zymosan-induced hyperpermeability, effect after 2 h ([4]; 2 h): 0 % of the control
- Zymosan-induced hyperpermeability, effect after 4 h ([4]; 4 h): -21 % of the control
